Patent EP0349354A1, “Peptides PF10 to PF19 from a retro virus HIV, method for the synthesis of these peptides and their use, particularly in diagnostics” (INSTITUT PASTEUR, priority 1988, dated 1990)

Legend:
anticorps anti-nef = test: ELISA for detection of anti-nef antibodies on coated peptides or nef; type: binding, humain
[1] = tested on: anticorps anti-protéine F; test: Western blot test on peptide spots with sera of HIV-1 infected patients; type: binding, humain; details: serum 1545 diluted 1/200; spot 10µl of peptide at 2 mg/ml
Experimental: Pour les besoins du test, les différents peptides PF16, PF19, PF13, PF17 utilisés sont dilués à une concentration de 2 mg/ml.
Sur une bande de papier BIORAD pour transblot, on dépose différents spots : 1µl, 2µl, 5µl, 10µl.
Après séchage on pratique un test Western Blot classique en utilisant comme anticorps des sérums de patients infectés par le virus HIV-1, positifs pour la protéine F, à des dilutions variant de 1/100 à 1/300.
Les peptides testés permettent d'aboutir aux résultats résumés dans le tableau 2 avec trois sérums différents anti-F ++ (++ signifiant une réaction plus marquée).

XCYKLVPVEPDKVEEANKGENTSLLHPVSLHGMDDPEREVLEWRFDSRL AFHHVARELHPEYFKNCZ [PF17, protéine F HIV-1, séquence 141-205]
nombre de sérums anti-nef positifs ayant réagi (anticorps anti-nef; ELISA, out of 31 anti-nef positive sera): 26
intensité de l'immunoréactivité (OD), Serum 1 (anticorps anti-nef; Serum 1, anti-nef positive, 500 ng coated per well): +++ (pour OD = 0,8 à 2,0)
intensité de l'immunoréactivité (OD), Serum 2 (anticorps anti-nef; Serum 2, anti-nef positive, 500 ng coated per well): +++ (pour OD = 0,8 à 2,0)
intensité de l'immunoréactivité (OD), Serum 3 (anticorps anti-nef; Serum 3, anti-nef positive, 500 ng coated per well): + (pour OD = 0,2 à 0,4)
intensité de l'immunoréactivité (OD), Serum 4 (anticorps anti-nef; Serum 4, anti-nef positive, 500 ng coated per well): +++ (pour OD = 0,8 à 2,0)
intensité de l'immunoréactivité (OD), Serum 5 (anticorps anti-nef; Serum 5, anti-nef positive, 500 ng coated per well): +++ (pour OD = 0,8 à 2,0)
intensité de l'immunoréactivité (OD), Serum 6 (anticorps anti-nef; Serum 6, anti-nef positive, 500 ng coated per well): +++ (pour OD = 0,8 à 2,0)
intensité de l'immunoréactivité (OD), Serum 7 (anticorps anti-nef; Serum 7, anti-nef positive, 500 ng coated per well): - (pour une densité optique (OD) inférieure à 0,2)
intensité de l'immunoréactivité (OD), Serum 8 (anticorps anti-nef; Serum 8, anti-nef positive, 500 ng coated per well): - (pour une densité optique (OD) inférieure à 0,2)
intensité de l'immunoréactivité (OD), Serum 9 (anticorps anti-nef; Serum 9, anti-nef positive, 500 ng coated per well): - (pour une densité optique (OD) inférieure à 0,2)
intensité de l'immunoréactivité (OD), Serum 10 (anticorps anti-nef; Serum 10, anti-nef positive, 500 ng coated per well): ++ (pour OD = 0,4 à 0,8)
intensité de l'immunoréactivité (OD), Serum 11 (anticorps anti-nef; Serum 11, anti-nef positive, 500 ng coated per well): + (pour OD = 0,2 à 0,4)
intensité de l'immunoréactivité (OD), Serum 12 (anticorps anti-nef; Serum 12, anti-nef positive, 500 ng coated per well): - (pour une densité optique (OD) inférieure à 0,2)
intensité de l'immunoréactivité (OD), Serum 13 (anticorps anti-nef; Serum 13, anti-nef positive, 500 ng coated per well): ++ (pour OD = 0,4 à 0,8)
intensité de l'immunoréactivité (OD), Serum 14 (anticorps anti-nef; Serum 14, anti-nef positive, 500 ng coated per well): - (pour une densité optique (OD) inférieure à 0,2)
intensité de l'immunoréactivité (OD), Serum 15 (anticorps anti-nef; Serum 15, anti-nef positive, 500 ng coated per well): +++ (pour OD = 0,8 à 2,0)
intensité de l'immunoréactivité (OD), Serum 16 (anticorps anti-nef; Serum 16, anti-nef positive, 500 ng coated per well): ++ (pour OD = 0,4 à 0,8)
intensité de l'immunoréactivité (OD), Serum 17 (anticorps anti-nef; Serum 17, anti-nef positive, 500 ng coated per well): ++ (pour OD = 0,4 à 0,8)
intensité de l'immunoréactivité (OD), Serum 18 (anticorps anti-nef; Serum 18, anti-nef positive, 500 ng coated per well): +++ (pour OD = 0,8 à 2,0)
intensité de l'immunoréactivité (OD), Serum 19 (anticorps anti-nef; Serum 19, anti-nef positive, 500 ng coated per well): +++ (pour OD = 0,8 à 2,0)
intensité de l'immunoréactivité (OD), Serum 20 (anticorps anti-nef; Serum 20, anti-nef positive, 500 ng coated per well): ++ (pour OD = 0,4 à 0,8)
intensité de l'immunoréactivité (OD), Serum 21 (anticorps anti-nef; Serum 21, anti-nef positive, 500 ng coated per well): +++ (pour OD = 0,8 à 2,0)
intensité de l'immunoréactivité (OD), Serum 22 (anticorps anti-nef; Serum 22, anti-nef positive, 500 ng coated per well): +++ (pour OD = 0,8 à 2,0)
intensité de l'immunoréactivité (OD), Serum 23 (anticorps anti-nef; Serum 23, anti-nef positive, 500 ng coated per well): ++ (pour OD = 0,4 à 0,8)
intensité de l'immunoréactivité (OD), Serum 24 (anticorps anti-nef; Serum 24, anti-nef positive, 500 ng coated per well): +++ (pour OD = 0,8 à 2,0)
intensité de l'immunoréactivité (OD), Serum 25 (anticorps anti-nef; Serum 25, anti-nef positive, 500 ng coated per well): +++ (pour OD = 0,8 à 2,0)
intensité de l'immunoréactivité (OD), Serum 26 (anticorps anti-nef; Serum 26, anti-nef positive, 500 ng coated per well): ++ (pour OD = 0,4 à 0,8)
intensité de l'immunoréactivité (OD), Serum 27 (anticorps anti-nef; Serum 27, anti-nef positive, 500 ng coated per well): + (pour OD = 0,2 à 0,4)
intensité de l'immunoréactivité (OD), Serum 28 (anticorps anti-nef; Serum 28, anti-nef positive, 500 ng coated per well): ++ (pour OD = 0,4 à 0,8)
intensité de l'immunoréactivité (OD), Serum 29 (anticorps anti-nef; Serum 29, anti-nef positive, 500 ng coated per well): ++ (pour OD = 0,4 à 0,8)
intensité de l'immunoréactivité (OD), Serum 30 (anticorps anti-nef; Serum 30, anti-nef positive, 500 ng coated per well): +++ (pour OD = 0,8 à 2,0)
intensité de l'immunoréactivité (OD), Serum 31 (anticorps anti-nef; Serum 31, anti-nef positive, 500 ng coated per well): ++ (pour OD = 0,4 à 0,8)
intensité de l'immunoréactivité (OD), Serum 32 (anticorps anti-nef; Serum 32, anti-nef negative control serum, 500 ng coated per well): - (pour une densité optique (OD) inférieure à 0,2)
intensité de l'immunoréactivité (OD), Serum 33 (anticorps anti-nef; Serum 33, anti-nef negative control serum, 500 ng coated per well): - (pour une densité optique (OD) inférieure à 0,2)
réaction avec sérum 1545 1/200, 10µl [1]: tr
